Test [1] relates to some species of mycobacteria. Conditions: cited from earlier work.
For test [2] the following is noted: in animals; cited from earlier work.
For test [3], the system named is M. smegmatis. Put plainly: microbe, parasite or virus in culture. Type of test: cell-based, Mycobacterium smegmatis. Conditions: for growth of M. smegmatis culture: addition to culture.
Test [4] has as its target T1, M. tuberculosis VKOR (MtbVKOR) (Mycobacterium tuberculosis, UniProt I6X5W1).
T1 sequence (I6X5W1 1-210): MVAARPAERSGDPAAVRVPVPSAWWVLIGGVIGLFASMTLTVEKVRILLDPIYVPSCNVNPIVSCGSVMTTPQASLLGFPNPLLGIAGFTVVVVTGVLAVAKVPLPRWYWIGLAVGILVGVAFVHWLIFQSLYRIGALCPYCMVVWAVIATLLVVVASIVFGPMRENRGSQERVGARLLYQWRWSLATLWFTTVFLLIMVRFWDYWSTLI
Type of test: cell-based.

Test [5] has as its target T1, M. tuberculosis VKOR (MtbVKOR). Type of test: cell-based. This is another data set of the same source.

The values that follow come from patent US20110243958A1, “ANTIMICROBIAL AGENTS THAT TARGET BACTERIAL VKOR” (priority 2008, published 2011).

Converted amounts (≈) assume the structure as drawn. “Also recorded” adds a separate entry of the source.

In the case of `CC(C)=CCC/C(C)=C/CC/C(C)=C/Cc1c(O)c2ccccc2oc1=O` [ferulenol], the growth of mycobacteria result in test [1] is reported as “inhibit the growth”. The anti-coagulant properties entry in test [2] is “has anti-coagulant properties”.
Take `CC(=O)CC(c1ccccc1)c1c(O)c2ccccc2oc1=O` (stereo not drawn) [warfarin]: in test [3], the “levels necessary to inhibit growth in Msmeg” value is listed as “high (millimolar concs.)” and the “growth of M. smegmatis culture” value is given as “caused inhibition of growth”. The MIC in test [3] (Mycolicibacterium smegmatis, M. smegmatis grown in Middlebrook 7H9 medium (defined medium), alamar blue assay, read-out: minimal inhibitory concentration) turned out to be 4.5 mM (≈ 1390 µg/mL). Moreover, the “activity of β-galactosidase (increase indicates inhibition of disulfide bond formation)” value in test [4] is “significantly increased”. In test [5], the “disulfide bond formation / VKOR activity” value is “inhibit the tuberculosis VKOR activity; also recorded: inhibit disulfide bond formation” and the “levels necessary to inhibit VKOR activity in E. coli” value is listed as “high (millimolar concs.)”.
As to `CC(=O)CC(c1ccccc1)c1c(O)c2ccccc2oc1=O` (stereo not drawn) [sodium warfarin], the “growth of M. smegmatis culture” value in test [3] was “inhibits growth”.
